Read-outs that look alike come from different tables or passages of the source.
Assay: Single ascending dose study, plasma pharmacokinetics of Compound (1) and GHB
Assay type: in vivo, human
Settings: fasted; for Tmax / AUC(0-inf) / AUC(0-t) / Cmax / half-life: human, plasma; for Tmax: read-out: Compound (1) plasma Tmax, Median; for AUC(0-inf) / AUC(0-t) / Cmax / half-life: po
Description: The plasma concentrations of Compound (1) and GHB in plasma in healthy human subjects were measured using liquid chromatography tandem mass-spectroscopy and evaluated using PHOENIX™ WINNONLIN® version 8.1 (Pharsight Corporation, USA) and MICROSOFT® EXCEL® (Microsoft Corporation, USA).
All randomized subjects who received Compound (1), with available pharmacokinetic (PK) data and without relevant deviations interfering with the PK evaluations, were included. Subjects who received only placebo were excluded from the PK population. In addition, the PK population was used for the summaries and analyses of all PK data.
A randomized, double-blind, single-center, single ascending dose study was undertaken to evaluate the safety, tolerability, and pharmacokinetics of Compound (1) and GHB in healthy subjects.
Compound (1) was administered to randomized healthy subjects at doses from 0.1 g to 7.25 g as an aqueous solution of Compound (1) in water. The subjects fasted for at least 10 hours overnight with clear liquids allowed prior to dosing and the subjects were fasted for 4 hours after dosing.
Plasma samples were obtained at various times following oral administration and the plasma concentrations of Compound (1) and GHB were measured.

[1] = Cohort 7 (7.25 g) single oral dose

With `CC(C)[C@H](N)C(=O)OCCCC(=O)O` [Compound (1), 4-((L-valyl)oxy)butanoic acid] the “Compound (1) CL/F, Max” value [1] was 433 L/h, the “Compound (1) CL/F, Mean” value [1] was 376 L/h and the “Compound (1) CL/F, Median” value [1] was 375 L/h. The “Compound (1) CL/F, Min” value [1] was 298 L/h, the “Compound (1) plasma AUC0-inf, Max” value [1] was 24300 ng·h/mL and the “Compound (1) plasma AUC0-inf, Min” value [1] was 16700 ng·h/mL. The “Compound (1) plasma AUC0-tlast, Max” value [1] was 24300 ng·h/mL, the “Compound (1) plasma AUC0-tlast, Min” value [1] was 16700 ng·h/mL and the “Compound (1) plasma Cmax, Max” value [1] was 26000 ng/mL. For the same compound, the “Compound (1) plasma t1/2, Max” value [1] was 1.28 h, the “Compound (1) plasma t1/2, Min” value [1] was 0.92 h and the Tmax (0.1 g, Cohort 1 (0.10 g) single oral dose) was 0.25 h. It also gave a Tmax (0.5 g, Cohort 2 (0.50 g) single oral dose) of 0.75 h, a Tmax (1.5 g, Cohort 3 (1.50 g) single oral dose) of 1 h and a Tmax (4.5 g, Cohort 5 (4.50 g) single oral dose) of 0.75 h. It also gave an AUC(0-inf) (0.1 g, Cohort 1 (0.10 g) single oral dose, read-out: Compound (1) plasma AUC0-inf, Mean) of 250 ng·h/mL, an AUC(0-inf) (0.1 g, Cohort 1 (0.10 g) single oral dose, read-out: Compound (1) plasma AUC0-inf, Median) of 252 ng·h/mL and an AUC(0-t) (0.1 g, Cohort 1 (0.10 g) single oral dose, read-out: Compound (1) plasma AUC0-tlast, Mean) of 249 ng·h/mL. For the same compound, the AUC(0-t) (0.1 g, Cohort 1 (0.10 g) single oral dose, read-out: Compound (1) plasma AUC0-tlast, Median) was 250 ng·h/mL, the Cmax (0.1 g, Cohort 1 (0.10 g) single oral dose, read-out: Compound (1) plasma Cmax, Mean) was 420 ng/mL and the Cmax (0.1 g, Cohort 1 (0.10 g) single oral dose, read-out: Compound (1) plasma Cmax, Median) was 373 ng/mL. It also gave a half-life (0.1 g, Cohort 1 (0.10 g) single oral dose, read-out: Compound (1) plasma t1/2, Mean (converted)) of 0.7 h, a half-life (0.1 g, Cohort 1 (0.10 g) single oral dose, read-out: Compound (1) plasma t1/2, Median (converted)) of 0.71 h and an AUC(0-inf) (0.5 g, Cohort 2 (0.50 g) single oral dose, read-out: Compound (1) plasma AUC0-inf, Mean) of 1290 ng·h/mL. The AUC(0-inf) (0.5 g, Cohort 2 (0.50 g) single oral dose, read-out: Compound (1) plasma AUC0-inf, Median) was 1280 ng·h/mL, the AUC(0-t) (0.5 g, Cohort 2 (0.50 g) single oral dose, read-out: Compound (1) plasma AUC0-tlast, Mean) was 1290 ng·h/mL and the AUC(0-t) (0.5 g, Cohort 2 (0.50 g) single oral dose, read-out: Compound (1) plasma AUC0-tlast, Median) was 1280 ng·h/mL. The Cmax (0.5 g, Cohort 2 (0.50 g) single oral dose, read-out: Compound (1) plasma Cmax, Mean) was 1540 ng/mL, the Cmax (0.5 g, Cohort 2 (0.50 g) single oral dose, read-out: Compound (1) plasma Cmax, Median) was 1270 ng/mL and the half-life (0.5 g, Cohort 2 (0.50 g) single oral dose, read-out: Compound (1) plasma t1/2, Mean (converted)) was 1.11 h. It also gave a half-life (0.5 g, Cohort 2 (0.50 g) single oral dose, read-out: Compound (1) plasma t1/2, Median (converted)) of 1.19 h, an AUC(0-inf) (1.5 g, Cohort 3 (1.50 g) single oral dose, read-out: Compound (1) plasma AUC0-inf, Mean) of 2480 ng·h/mL and an AUC(0-inf) (1.5 g, Cohort 3 (1.50 g) single oral dose, read-out: Compound (1) plasma AUC0-inf, Median) of 2710 ng·h/mL. The AUC(0-t) (1.5 g, Cohort 3 (1.50 g) single oral dose, read-out: Compound (1) plasma AUC0-tlast, Mean) was 2860 ng·h/mL, the AUC(0-t) (1.5 g, Cohort 3 (1.50 g) single oral dose, read-out: Compound (1) plasma AUC0-tlast, Median) was 2960 ng·h/mL and the Cmax (1.5 g, Cohort 3 (1.50 g) single oral dose, read-out: Compound (1) plasma Cmax, Mean) was 3360 ng/mL. For the same compound, the Cmax (1.5 g, Cohort 3 (1.50 g) single oral dose, read-out: Compound (1) plasma Cmax, Median) was 2920 ng/mL, the half-life (1.5 g, Cohort 3 (1.50 g) single oral dose, read-out: Compound (1) plasma t1/2, Mean (converted)) was 1.04 h and the half-life (1.5 g, Cohort 3 (1.50 g) single oral dose, read-out: Compound (1) plasma t1/2, Median (converted)) was 1.06 h. For the same compound, the AUC(0-inf) (3 g, Cohort 4 (3.00 g) single oral dose, read-out: Compound (1) plasma AUC0-inf, Mean) was 7520 ng·h/mL, the AUC(0-inf) (3 g, Cohort 4 (3.00 g) single oral dose, read-out: Compound (1) plasma AUC0-inf, Median) was 7410 ng·h/mL and the AUC(0-t) (3 g, Cohort 4 (3.00 g) single oral dose, read-out: Compound (1) plasma AUC0-tlast, Mean) was 7510 ng·h/mL. The AUC(0-t) (3 g, Cohort 4 (3.00 g) single oral dose, read-out: Compound (1) plasma AUC0-tlast, Median) was 7410 ng·h/mL, the Cmax (3 g, Cohort 4 (3.00 g) single oral dose, read-out: Compound (1) plasma Cmax, Mean) was 11300 ng/mL and the Cmax (3 g, Cohort 4 (3.00 g) single oral dose, read-out: Compound (1) plasma Cmax, Median) was 11200 ng/mL. The half-life (3 g, Cohort 4 (3.00 g) single oral dose, read-out: Compound (1) plasma t1/2, Mean (converted)) was 1.15 h, the half-life (3 g, Cohort 4 (3.00 g) single oral dose, read-out: Compound (1) plasma t1/2, Median (converted)) was 1.12 h and the AUC(0-inf) (4.5 g, Cohort 5 (4.50 g) single oral dose, read-out: Compound (1) plasma AUC0-inf, Mean) was 11400 ng·h/mL. It also gave an AUC(0-inf) (4.5 g, Cohort 5 (4.50 g) single oral dose, read-out: Compound (1) plasma AUC0-inf, Median) of 11600 ng·h/mL, an AUC(0-t) (4.5 g, Cohort 5 (4.50 g) single oral dose, read-out: Compound (1) plasma AUC0-tlast, Mean) of 11100 ng·h/mL and an AUC(0-t) (4.5 g, Cohort 5 (4.50 g) single oral dose, read-out: Compound (1) plasma AUC0-tlast, Median) of 11600 ng·h/mL. The Cmax (4.5 g, Cohort 5 (4.50 g) single oral dose, read-out: Compound (1) plasma Cmax, Mean) was 12800 ng/mL, the Cmax (4.5 g, Cohort 5 (4.50 g) single oral dose, read-out: Compound (1) plasma Cmax, Median) was 14000 ng/mL and the half-life (4.5 g, Cohort 5 (4.50 g) single oral dose, read-out: Compound (1) plasma t1/2, Mean (converted)) was 1.14 h. It also gave a half-life (4.5 g, Cohort 5 (4.50 g) single oral dose, read-out: Compound (1) plasma t1/2, Median (converted)) of 1.13 h, an AUC(0-inf) (6 g, Cohort 6 (6.00 g) single oral dose, read-out: Compound (1) plasma AUC0-inf, Mean) of 18400 ng·h/mL and an AUC(0-inf) (6 g, Cohort 6 (6.00 g) single oral dose, read-out: Compound (1) plasma AUC0-inf, Median) of 18000 ng·h/mL. For the same compound, the AUC(0-t) (6 g, Cohort 6 (6.00 g) single oral dose, read-out: Compound (1) plasma AUC0-tlast, Mean) was 18400 ng·h/mL, the AUC(0-t) (6 g, Cohort 6 (6.00 g) single oral dose, read-out: Compound (1) plasma AUC0-tlast, Median) was 18000 ng·h/mL and the Cmax (6 g, Cohort 6 (6.00 g) single oral dose, read-out: Compound (1) plasma Cmax, Mean) was 17600 ng/mL. It also gave a Cmax (6 g, Cohort 6 (6.00 g) single oral dose, read-out: Compound (1) plasma Cmax, Median) of 16500 ng/mL, a half-life (6 g, Cohort 6 (6.00 g) single oral dose, read-out: Compound (1) plasma t1/2, Mean (converted)) of 1.18 h and a half-life (6 g, Cohort 6 (6.00 g) single oral dose, read-out: Compound (1) plasma t1/2, Median (converted)) of 1.18 h. The AUC(0-inf) (7.25 g, Cohort 7 (7.25 g) single oral dose, read-out: Compound (1) plasma AUC0-inf, Mean) was 19600 ng·h/mL, the AUC(0-inf) (7.25 g, Cohort 7 (7.25 g) single oral dose, read-out: Compound (1) plasma AUC0-inf, Median) was 19400 ng·h/mL and the AUC(0-t) (7.25 g, Cohort 7 (7.25 g) single oral dose, read-out: Compound (1) plasma AUC0-tlast, Mean) was 19600 ng·h/mL. The AUC(0-t) (7.25 g, Cohort 7 (7.25 g) single oral dose, read-out: Compound (1) plasma AUC0-tlast, Median) was 19400 ng·h/mL, the Cmax (7.25 g, Cohort 7 (7.25 g) single oral dose, read-out: Compound (1) plasma Cmax, Mean) was 22100 ng/mL and the Cmax (7.25 g, Cohort 7 (7.25 g) single oral dose, read-out: Compound (1) plasma Cmax, Median) was 22200 ng/mL. It also gave a half-life (7.25 g, Cohort 7 (7.25 g) single oral dose, read-out: Compound (1) plasma t1/2, Mean (converted)) of 1.11 h, a half-life (7.25 g, Cohort 7 (7.25 g) single oral dose, read-out: Compound (1) plasma t1/2, Median (converted)) of 1.12 h and a Tmax (Cohort 4 (3.00 g) single oral dose) of 0.5 h. It also gave a Tmax (Cohort 6 (6.00 g) single oral dose) of 0.5 h and a Tmax [1] of 0.62 h.
